Assay [1] has as its target T1, Rhodopsin kinase GRK7 (Homo sapiens) (UniProt Q8WTQ7).
T1 sequence (whole entry): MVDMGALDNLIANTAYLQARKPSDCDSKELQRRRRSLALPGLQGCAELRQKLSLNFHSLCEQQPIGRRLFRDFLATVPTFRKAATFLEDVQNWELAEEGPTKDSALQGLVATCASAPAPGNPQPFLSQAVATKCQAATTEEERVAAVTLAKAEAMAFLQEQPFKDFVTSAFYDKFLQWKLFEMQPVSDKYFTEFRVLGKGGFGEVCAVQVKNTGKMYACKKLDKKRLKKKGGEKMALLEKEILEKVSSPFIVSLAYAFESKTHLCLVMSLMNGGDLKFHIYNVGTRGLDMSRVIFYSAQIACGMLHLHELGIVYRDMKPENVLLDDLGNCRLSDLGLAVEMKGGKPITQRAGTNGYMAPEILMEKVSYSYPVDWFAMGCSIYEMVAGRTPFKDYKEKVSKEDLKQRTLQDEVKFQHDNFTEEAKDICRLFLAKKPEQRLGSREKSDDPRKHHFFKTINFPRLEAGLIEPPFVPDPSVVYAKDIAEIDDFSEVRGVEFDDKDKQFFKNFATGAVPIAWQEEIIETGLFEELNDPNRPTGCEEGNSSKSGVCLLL
Nature of the assay: Inhibition of human GRK7 using casein as substrate at 1 uM in presence of 32P-ATP by Hotspot assay relative to control; values are per cent of control.

The target in assay [2] is MAP kinase-activated protein kinase 3 (Homo sapiens) (UniProt Q16644). The assay can be described thus: Inhibition of human MAPKAPK3 using KKLNRTLSVA as substrate at 1 uM in presence of 32P-ATP by Hotspot assay relative to control; values are per cent of control.
For assay [3], the target named is T2, Discoidin domain-containing receptor 2 (Homo sapiens) (UniProt Q16832).
T2 sequence (whole entry): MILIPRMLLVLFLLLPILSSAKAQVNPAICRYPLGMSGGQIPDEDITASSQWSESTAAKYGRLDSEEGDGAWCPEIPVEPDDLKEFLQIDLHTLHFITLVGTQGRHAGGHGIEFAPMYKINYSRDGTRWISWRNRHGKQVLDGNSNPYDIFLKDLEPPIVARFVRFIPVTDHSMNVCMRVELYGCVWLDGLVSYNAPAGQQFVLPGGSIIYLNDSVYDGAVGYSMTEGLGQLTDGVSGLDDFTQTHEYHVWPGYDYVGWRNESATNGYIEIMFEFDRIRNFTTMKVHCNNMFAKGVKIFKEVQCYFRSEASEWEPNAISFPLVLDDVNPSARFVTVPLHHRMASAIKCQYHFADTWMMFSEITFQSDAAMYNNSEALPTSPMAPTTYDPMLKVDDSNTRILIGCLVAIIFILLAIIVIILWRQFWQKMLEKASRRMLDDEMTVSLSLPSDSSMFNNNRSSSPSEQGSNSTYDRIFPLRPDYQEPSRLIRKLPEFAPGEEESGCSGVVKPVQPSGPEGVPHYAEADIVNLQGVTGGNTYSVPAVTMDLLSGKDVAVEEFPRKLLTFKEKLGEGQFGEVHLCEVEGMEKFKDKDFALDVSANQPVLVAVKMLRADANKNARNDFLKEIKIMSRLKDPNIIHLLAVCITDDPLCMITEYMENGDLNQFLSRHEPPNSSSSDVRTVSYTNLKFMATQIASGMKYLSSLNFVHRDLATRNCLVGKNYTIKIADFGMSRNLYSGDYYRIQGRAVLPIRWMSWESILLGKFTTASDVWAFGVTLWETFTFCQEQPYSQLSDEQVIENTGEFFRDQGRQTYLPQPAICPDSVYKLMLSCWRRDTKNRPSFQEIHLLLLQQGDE
The assay can be described thus: Inhibition of human DDR2 using KKSRGDYMTMQIG as substrate at 1 uM in presence of 32P-ATP by Hotspot assay relative to control; values are per cent of control.

Assay [4] concerns the target T3, Dual specificity tyrosine-phosphorylation-regulated kinase 3 (Homo sapiens) (UniProt O43781).
T3 sequence (whole entry): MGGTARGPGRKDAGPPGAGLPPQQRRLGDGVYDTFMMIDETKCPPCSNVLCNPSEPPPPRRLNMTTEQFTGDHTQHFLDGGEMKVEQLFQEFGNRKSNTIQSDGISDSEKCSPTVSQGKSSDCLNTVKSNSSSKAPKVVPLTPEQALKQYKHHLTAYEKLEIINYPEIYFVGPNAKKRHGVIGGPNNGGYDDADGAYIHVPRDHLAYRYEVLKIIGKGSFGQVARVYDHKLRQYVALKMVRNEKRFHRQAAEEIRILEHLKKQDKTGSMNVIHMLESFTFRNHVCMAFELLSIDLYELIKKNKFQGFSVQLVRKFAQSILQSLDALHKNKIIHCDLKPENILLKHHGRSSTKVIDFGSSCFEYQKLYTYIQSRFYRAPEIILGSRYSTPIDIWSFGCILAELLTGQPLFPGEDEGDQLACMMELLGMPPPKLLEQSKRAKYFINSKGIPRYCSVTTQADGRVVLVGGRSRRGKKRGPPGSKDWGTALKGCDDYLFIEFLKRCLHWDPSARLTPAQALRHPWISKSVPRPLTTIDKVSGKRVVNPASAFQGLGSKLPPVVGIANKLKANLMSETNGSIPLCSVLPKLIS
Nature of the assay: Residual activity of human DYRK3 using RRRFRPASPLRGPPK as substrate at 1 uM in presence of 32P-ATP by Hotspot assay relative to control.

For assay [5], the target named is Non-receptor tyrosine-protein kinase TYK2 (Homo sapiens) (UniProt P29597). Nature of the assay: Inhibition of human TYK2 using KKSRGDYMTMQIG as substrate at 1 uM in presence of 32P-ATP by Hotspot assay relative to control; values are per cent of control.
Assay [6] concerns the target Tyrosine-protein kinase Srms (Homo sapiens) (UniProt Q9H3Y6). The assay can be described thus: Inhibition of human SRMS using poly[Glu:Tyr] (4:1) as substrate at 1 uM in presence of 32P-ATP by Hotspot assay relative to control; values are per cent of control.
The target in assay [7] is Calcium/calmodulin-dependent protein kinase type II subunit gamma (Homo sapiens) (UniProt Q13555). The assay can be described thus: Inhibition of human CAMK2g using KKLNRTLSFAEPG as substrate at 1 uM in presence of 32P-ATP by Hotspot assay relative to control; values are per cent of control.
The target in assay [8] is CDK9/Cyclin K (Homo sapiens) (UniProt P50750+O75909). Nature of the assay: Inhibition of human CDK9/cyclin K using KTFCGTPEYLAPEVRREPRILSEEEQEMFRDFDYIADWC as substrate at 1 uM in presence of 32P-ATP by Hotspot assay relative to control; values are per cent of control.

Sequence of Calcium/calmodulin-dependent protein kinase type II subunit gamma (Homo sapiens) (Q13555 whole entry): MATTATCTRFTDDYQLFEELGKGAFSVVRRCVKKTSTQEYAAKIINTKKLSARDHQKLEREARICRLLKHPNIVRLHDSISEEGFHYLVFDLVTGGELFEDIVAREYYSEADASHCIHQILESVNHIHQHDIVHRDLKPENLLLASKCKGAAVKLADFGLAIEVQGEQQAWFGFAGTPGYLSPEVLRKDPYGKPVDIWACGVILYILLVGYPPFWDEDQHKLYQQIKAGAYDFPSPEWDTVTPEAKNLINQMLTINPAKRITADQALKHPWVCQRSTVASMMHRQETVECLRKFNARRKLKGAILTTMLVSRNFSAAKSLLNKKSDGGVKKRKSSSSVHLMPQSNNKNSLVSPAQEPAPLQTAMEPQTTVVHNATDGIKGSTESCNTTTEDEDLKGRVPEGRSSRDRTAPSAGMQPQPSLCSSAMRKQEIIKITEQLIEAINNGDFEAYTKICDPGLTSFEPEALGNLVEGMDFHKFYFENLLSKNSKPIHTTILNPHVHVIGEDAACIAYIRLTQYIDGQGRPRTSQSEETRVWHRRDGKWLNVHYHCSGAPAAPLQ
Sequence of Tyrosine-protein kinase Srms (Homo sapiens) (Q9H3Y6 whole entry): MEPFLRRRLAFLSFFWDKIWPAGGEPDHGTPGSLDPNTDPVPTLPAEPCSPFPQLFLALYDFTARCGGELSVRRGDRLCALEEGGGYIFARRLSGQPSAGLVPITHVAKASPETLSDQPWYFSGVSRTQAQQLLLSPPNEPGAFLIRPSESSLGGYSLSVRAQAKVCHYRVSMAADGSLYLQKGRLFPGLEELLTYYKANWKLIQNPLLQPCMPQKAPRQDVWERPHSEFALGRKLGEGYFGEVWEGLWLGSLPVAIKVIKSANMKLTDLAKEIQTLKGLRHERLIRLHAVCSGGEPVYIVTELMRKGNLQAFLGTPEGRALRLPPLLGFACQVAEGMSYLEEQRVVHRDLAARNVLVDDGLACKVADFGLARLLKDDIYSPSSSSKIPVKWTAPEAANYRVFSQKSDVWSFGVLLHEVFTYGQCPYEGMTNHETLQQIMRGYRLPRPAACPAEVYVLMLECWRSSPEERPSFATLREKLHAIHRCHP
Sequence of Non-receptor tyrosine-protein kinase TYK2 (Homo sapiens) (P29597 whole entry): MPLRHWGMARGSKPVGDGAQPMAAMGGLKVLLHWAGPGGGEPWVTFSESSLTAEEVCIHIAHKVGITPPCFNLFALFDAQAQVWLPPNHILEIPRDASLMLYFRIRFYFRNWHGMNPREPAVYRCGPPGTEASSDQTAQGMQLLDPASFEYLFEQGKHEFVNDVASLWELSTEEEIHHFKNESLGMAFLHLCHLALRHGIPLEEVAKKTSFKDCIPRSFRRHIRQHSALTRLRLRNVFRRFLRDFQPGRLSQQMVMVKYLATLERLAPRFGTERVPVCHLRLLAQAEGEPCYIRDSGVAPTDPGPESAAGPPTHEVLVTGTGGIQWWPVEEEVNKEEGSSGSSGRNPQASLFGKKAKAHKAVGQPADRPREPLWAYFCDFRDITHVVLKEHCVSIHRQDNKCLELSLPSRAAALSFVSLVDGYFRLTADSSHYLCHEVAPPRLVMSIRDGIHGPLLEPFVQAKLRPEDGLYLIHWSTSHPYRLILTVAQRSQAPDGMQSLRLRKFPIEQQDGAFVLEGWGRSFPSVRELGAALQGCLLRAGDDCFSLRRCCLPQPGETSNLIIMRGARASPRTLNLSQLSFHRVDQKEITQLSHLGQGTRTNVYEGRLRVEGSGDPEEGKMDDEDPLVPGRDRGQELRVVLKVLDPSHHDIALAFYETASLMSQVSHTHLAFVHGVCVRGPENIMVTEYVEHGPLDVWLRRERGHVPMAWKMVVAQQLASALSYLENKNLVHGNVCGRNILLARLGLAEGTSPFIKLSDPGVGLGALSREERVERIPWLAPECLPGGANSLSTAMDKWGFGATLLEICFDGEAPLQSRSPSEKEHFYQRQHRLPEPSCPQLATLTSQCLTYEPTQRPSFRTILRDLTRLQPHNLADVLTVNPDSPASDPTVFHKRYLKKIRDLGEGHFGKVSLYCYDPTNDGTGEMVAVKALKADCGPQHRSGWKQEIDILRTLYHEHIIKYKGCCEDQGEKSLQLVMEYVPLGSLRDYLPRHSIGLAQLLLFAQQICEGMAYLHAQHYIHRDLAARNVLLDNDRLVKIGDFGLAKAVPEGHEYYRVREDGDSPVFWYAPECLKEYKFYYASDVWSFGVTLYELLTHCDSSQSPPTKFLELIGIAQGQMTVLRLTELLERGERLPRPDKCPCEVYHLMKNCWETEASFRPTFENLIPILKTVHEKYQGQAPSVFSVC
Sequence of MAP kinase-activated protein kinase 3 (Homo sapiens) (Q16644 whole entry, looked up, the tested form may be a part): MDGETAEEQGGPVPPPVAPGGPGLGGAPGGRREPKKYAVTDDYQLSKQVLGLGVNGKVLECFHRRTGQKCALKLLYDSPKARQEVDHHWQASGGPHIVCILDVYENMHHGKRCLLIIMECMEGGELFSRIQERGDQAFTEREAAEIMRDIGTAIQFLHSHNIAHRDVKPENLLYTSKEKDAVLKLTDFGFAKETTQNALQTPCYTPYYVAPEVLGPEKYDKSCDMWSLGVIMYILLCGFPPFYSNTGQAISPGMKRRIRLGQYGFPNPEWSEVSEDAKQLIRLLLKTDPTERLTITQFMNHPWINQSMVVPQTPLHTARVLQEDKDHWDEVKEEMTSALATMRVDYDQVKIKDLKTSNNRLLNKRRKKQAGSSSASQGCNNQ

Turning to `Cc1cc(-c2cnc(N)c3c(-c4ccc5scnc5c4)csc23)n(C)n1`, the residual activity in assay [1] came to 100%; in assay [2], 90.7%; in assay [3] it was 88.8%; in assay [4], 92.9%; in assay [5], 99.4%; in assay [6] it was 78.8%. Also, the residual activity in assay [7] turned out to be 82.4%; in assay [8] it was 104%.
For the molecule `CC(C)S(=O)(=O)c1ccc2nccc(Nc3ccc4scnc4c3)c2c1`, the residual activity in assay [1] is 101%; in assay [2] it was 98.9%; in assay [3], 102%; in assay [4], 106%; in assay [5], 101%; in assay [6], 77.1%. Also, the figures for the residual activity in assay [7] and in assay [8] were 98.3% and 94.5%, respectively.
Regarding `CNC(=O)c1ccc2c(c1)ncn2-c1ccc(CC(=O)OC(C)(C)C)cc1`, the residual activity turned out to be 92.4% in assay [1]; 98% in assay [2]; 98.7% in assay [3]; 101% in assay [4]; 103% in assay [5]; 105% in assay [6]. The values for the residual activity in assay [7] and in assay [8] were 98.5% and 99.6%, respectively.

For the origin of these results see ChEMBL document CHEMBL5649166, “RIP3 induces apoptosis independent of pronecrotic kinase activity” (Mol Cell, 2014).
